Read-outs that look alike come from different tables or passages of the source.
How the values were obtained:
PRC2 containing wt EZH2 = PRC2 containing wt EZH2 (Homo sapiens (Human), UniProt Q15910); assay: EZH2 biochemical assay (IC50), 3H-SAM incorporation into biotinylated H3 peptide
Procedure: EZH2 biochemical assay (IC50): Compound potencies were assessed through incorporation of ^3H-SAM into a biotinylated H3 peptide. Specifically, 30 pM PRC2 containing wt EZH2 (pentameric complex prepared in-house) was pre-incubated with 450 nM SAM, 450 nM ^3H-SAM, 2 μM H3K27me3 activating peptide (H2N-[…](Kme3)[…]-amide) and compounds (as 10 point duplicate dose response titrations in DMSO, final assay 0.8% DMSO (v/v)) for 3-5 h in 50 mM Tris (pH 8.5), 1 mM DTT, 0.07 mM Brij-35, 0.1% BSA, and 0.8% DMSO in a total volume of 12.5 μl. Reaction was initiated with biotinylated H3 substrate peptide (H2N-[…](Kme1)[…]-NTPEGBiot) as a 2 μM stock in 12.5 μl of buffer and allowed to react at room temperature for 18-22 h. Quenching was accomplished by addition of 20 μl of STOP solution (50 mM Tris (pH 8.5), 200 mM EDTA, 2 mM SAH). 35 μl of the quenched solution was transferred to streptavidin coated FlashPlates (PerkinElmer), incubated 1-2 h, washed, and read in a TopCount Reader (PerkinElmer). IC50s were calculated in Genedata Screener using non-linear least square four parameter fits, where the four parameters were IC50, Hill slope, pre-transitional baseline (0% INH), and post-transitional baseline (100% INH).
IC50 values are reported as follows: “A” indicates an IC50 value of less than 0.5 nM; “B” indicates an IC50 value of 0.5 nM to 5 nM; “C” indicates an IC50 value of greater than 5 nM for each enzyme; and “ND” is not determined.

[1] = test system: H3K27me3 mark in HeLa cells (EZH2); assay: H3K27me3 Alpha Hela Assay (AlphaLISA); format: cell-based; details: HeLa cells, 72 hrs, read-out: EZH2 Cell H3K27me3 Alpha HeLa (EC50 K27me3)
Procedure: H3K27me3 Alpha Hela Assay (AlphaLISA). Ten different doses of each test compound (in a series of 3-fold dilutions) were plated in duplicate 384-well tissue culture treated plates (Catalog #6007680; Perkin Elmer, Waltham, Mass.). Hela cells grown in culture were trypsinized and counted using a Countess® cell counter (Catalog #C10281; Life Technologies, Grand Island, N.Y.). Cell were diluted to 67,000 cells per mL in 10% DMEM (Catalog #10569-010 Life Technologies, Grand Island, N.Y.) and 15 μL (1,000 cells) were plated into each well using the Biotek MicroFlo™ Select Dispenser (BioTek Instruments, Inc. Vermont, USA),) of the 384-well plate. Plates were incubated at 37° C./5% CO2 for 72 hrs. One of the duplicate plates was processed for HeLa assay and the other for viability.
5 μL of Cell-Histone Lysis buffer (1×) (Catalog #AL009F1 Perkin Elmer; Waltham, Mass.) per well was added to the plate processed for AlphaLISA and the plate was incubated at RT for 30 minutes on a plate shaker with low speed (Model #4625-Q Thermo Scientific; Waltham, Mass.). Then, 10 μL per well Histone Extraction buffer (catalog #AL009F2; Perkin Elmer; Waltham, Mass.) was added and the plate further incubated at RT for 20 min on plate shaker with low speed. Next, 10 μL of 5× mix of anti-K27me3 acceptor beads plus Biotinylated anti-Histone H3 (C-ter) Antibody (diluted to 3 nM final) (Catalog #AL118 Perkin Elmer; Waltham, Mass.) was added in each well. Dilution of the acceptor beads and anti-Histone H3 was done in 1× Histone Detection buffer (Catalog #AL009F3 Perkin Elmer; Waltham, Mass.) which was produced by diluting the 10× stock provided. The plate was sealed with an aluminum plate sealer and incubated at 23° C. for 60 min. Next, 10 μL 5× solution of Streptavidin Donor beads were added (Catalog #6760002 Perkin Elmer; Waltham, Mass.) (20 μg/mL final in 1× Histone Detection Buffer), =plate was sealed with Aluminum plate sealer and incubated at 23° C. for 30 min. The plates were then read using an EnVision-Alpha Reader (model #2104 Perkin Elmer; Waltham, Mass.).
Data from both assays was analyzed using Genedata (Basel, Switzerland). Data files were imported to Genedata and assay conditions were specified. A unique Analysis ID was created and the data files analysed to measure dose-dependent inhibition of H3K27me3 mark and cell viability respectively. Readout of DMSO wells were used to normalize the data. Resulting curves were fitted using Smart fit application (Genedata; Basel, Switzerland). The data was checked for quality, validated and integrated in excel format using Stardrop (Optibruim, Cambridge, UK).
EC50 values are reported as follows: “A” indicates an EC50 value of less than 10 nM; “B” indicates an EC50 value of 10 nM to 100 nM; “C” indicates an EC50 value of greater than 100 nM; and “ND” is not determined.

[2] = EZH2 (IC50), 30 pM PRC2 containing wt EZH2; 3-5 h pre-incubation
[3] = read-out: EZH2 (IC50); 30 pM PRC2 containing wt EZH2; 3-5 h pre-incubation
[4] = 30 pM PRC2 containing wt EZH2; 3-5 h pre-incubation; read-out: EZH2 (IC50)

Sequence of PRC2 containing wt EZH2 (Q15910 whole entry): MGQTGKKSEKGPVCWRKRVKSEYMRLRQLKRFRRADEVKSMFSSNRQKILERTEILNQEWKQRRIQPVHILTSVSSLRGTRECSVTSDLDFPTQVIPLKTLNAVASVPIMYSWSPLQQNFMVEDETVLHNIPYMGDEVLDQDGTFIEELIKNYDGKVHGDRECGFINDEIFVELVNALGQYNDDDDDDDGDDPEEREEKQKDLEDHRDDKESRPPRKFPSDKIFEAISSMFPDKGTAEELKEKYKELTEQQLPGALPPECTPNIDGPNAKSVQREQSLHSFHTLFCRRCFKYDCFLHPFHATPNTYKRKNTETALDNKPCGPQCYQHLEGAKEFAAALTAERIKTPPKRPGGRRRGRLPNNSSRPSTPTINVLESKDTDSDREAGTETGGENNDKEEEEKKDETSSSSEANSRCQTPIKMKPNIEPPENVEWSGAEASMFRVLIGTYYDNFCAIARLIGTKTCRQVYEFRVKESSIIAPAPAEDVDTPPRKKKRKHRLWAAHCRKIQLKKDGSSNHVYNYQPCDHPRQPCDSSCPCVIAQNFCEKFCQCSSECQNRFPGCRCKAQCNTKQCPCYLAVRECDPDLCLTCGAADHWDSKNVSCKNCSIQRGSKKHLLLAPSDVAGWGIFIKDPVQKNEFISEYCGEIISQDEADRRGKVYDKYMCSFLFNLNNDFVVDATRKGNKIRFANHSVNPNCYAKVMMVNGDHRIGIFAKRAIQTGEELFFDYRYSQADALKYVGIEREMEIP
Sequence of PRC2 containing wt EZH2 (O75530 whole entry partner): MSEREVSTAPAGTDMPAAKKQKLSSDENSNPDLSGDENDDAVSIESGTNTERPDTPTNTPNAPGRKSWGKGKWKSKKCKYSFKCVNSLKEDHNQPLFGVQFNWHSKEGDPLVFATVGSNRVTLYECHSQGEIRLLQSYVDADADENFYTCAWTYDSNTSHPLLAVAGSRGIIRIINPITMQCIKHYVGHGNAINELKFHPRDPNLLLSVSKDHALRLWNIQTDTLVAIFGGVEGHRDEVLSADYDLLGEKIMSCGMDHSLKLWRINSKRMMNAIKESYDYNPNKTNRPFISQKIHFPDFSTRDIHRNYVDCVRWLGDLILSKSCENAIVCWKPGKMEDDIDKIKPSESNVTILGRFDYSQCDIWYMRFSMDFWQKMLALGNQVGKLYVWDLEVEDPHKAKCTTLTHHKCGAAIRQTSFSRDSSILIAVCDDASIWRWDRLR
Sequence of PRC2 containing wt EZH2 (Q15022 whole entry partner): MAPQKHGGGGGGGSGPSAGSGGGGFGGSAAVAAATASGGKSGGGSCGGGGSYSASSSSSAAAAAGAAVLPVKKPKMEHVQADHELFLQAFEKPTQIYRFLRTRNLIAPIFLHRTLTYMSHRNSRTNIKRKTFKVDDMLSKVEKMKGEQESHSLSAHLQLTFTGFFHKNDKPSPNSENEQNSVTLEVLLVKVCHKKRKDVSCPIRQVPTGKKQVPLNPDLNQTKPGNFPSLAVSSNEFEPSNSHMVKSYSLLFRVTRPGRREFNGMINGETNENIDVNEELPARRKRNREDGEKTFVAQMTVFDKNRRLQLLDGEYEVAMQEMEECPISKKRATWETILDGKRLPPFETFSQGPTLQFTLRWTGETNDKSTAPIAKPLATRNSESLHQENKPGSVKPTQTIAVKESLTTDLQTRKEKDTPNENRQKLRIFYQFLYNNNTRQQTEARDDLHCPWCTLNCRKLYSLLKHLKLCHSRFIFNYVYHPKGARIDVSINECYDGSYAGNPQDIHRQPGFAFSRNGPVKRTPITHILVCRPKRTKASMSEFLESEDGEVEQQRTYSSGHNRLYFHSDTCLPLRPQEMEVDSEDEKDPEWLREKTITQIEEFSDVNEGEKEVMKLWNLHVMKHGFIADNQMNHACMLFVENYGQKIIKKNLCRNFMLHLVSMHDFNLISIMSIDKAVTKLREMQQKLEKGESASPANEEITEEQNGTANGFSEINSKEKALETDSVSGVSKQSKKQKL
Sequence of PRC2 containing wt EZH2 (Q09028 whole entry partner): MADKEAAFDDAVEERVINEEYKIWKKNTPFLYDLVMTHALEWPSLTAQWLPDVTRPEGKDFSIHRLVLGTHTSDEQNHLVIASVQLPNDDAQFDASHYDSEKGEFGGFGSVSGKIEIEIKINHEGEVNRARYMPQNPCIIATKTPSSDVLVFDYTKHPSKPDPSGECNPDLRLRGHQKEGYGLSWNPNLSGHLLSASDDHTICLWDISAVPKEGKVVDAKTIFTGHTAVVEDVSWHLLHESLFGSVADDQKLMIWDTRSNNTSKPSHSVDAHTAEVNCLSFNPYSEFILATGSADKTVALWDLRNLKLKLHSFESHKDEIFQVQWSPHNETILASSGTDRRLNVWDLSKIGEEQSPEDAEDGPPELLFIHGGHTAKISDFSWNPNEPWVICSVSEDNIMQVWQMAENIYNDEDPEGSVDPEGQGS
Sequence of PRC2 containing wt EZH2 (Q6ZN18 whole entry partner): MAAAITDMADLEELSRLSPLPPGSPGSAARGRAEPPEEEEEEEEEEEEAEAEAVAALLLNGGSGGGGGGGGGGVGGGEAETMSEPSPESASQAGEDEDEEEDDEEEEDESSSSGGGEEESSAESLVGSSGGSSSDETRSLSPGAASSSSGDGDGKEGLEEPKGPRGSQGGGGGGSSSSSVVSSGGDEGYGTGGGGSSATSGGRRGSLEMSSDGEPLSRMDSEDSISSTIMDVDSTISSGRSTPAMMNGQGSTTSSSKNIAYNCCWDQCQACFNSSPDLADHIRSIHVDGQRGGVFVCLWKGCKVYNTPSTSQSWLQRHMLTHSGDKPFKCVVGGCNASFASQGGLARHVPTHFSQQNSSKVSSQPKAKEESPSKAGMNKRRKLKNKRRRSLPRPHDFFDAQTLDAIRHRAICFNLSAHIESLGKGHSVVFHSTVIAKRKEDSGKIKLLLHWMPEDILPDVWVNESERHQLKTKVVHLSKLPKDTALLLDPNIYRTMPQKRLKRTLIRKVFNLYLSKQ

CSc1cc(C)[nH]c(=O)c1CNC(=O)c1c(C)n([C@H](C)C2CCN(C3CC(F)C3)CC2)c2ccccc12 (single isomer, unassigned) [64 (isomer 1)]
IC50 (PRC2 containing wt EZH2; [2]): < 0.5 nM
EC50 ([1]; Homo sapiens, HeLa, 72 h): 10 to 100 nM

CSc1cc(C)[nH]c(=O)c1CNC(=O)c1c(C)n([C@H](C)C2CCN(C3CC(F)C3)CC2)c2ccccc12 (single isomer, unassigned) [64 (isomer 2)]
IC50 (PRC2 containing wt EZH2; [3]): < 0.5 nM
EC50 [1]: 10 to 100 nM

COCCOC1CCC([C@@H](C)n2c(C)c(C(=O)NCc3c(SC)cc(C)[nH]c3=O)c3ccccc32)CC1 (single isomer, unassigned) [67 (isomer 1)]
IC50 (PRC2 containing wt EZH2; [3]): < 0.5 nM
EC50 ([1]; Homo sapiens, HeLa, 72 h): 10 to 100 nM

COCCOC1CCC([C@@H](C)n2c(C)c(C(=O)NCc3c(SC)cc(C)[nH]c3=O)c3ccccc32)CC1 (single isomer, unassigned) [67 (isomer 2)]
IC50 (PRC2 containing wt EZH2; [2]): < 0.5 nM
EC50 [1]: < 10 nM

CSc1cc(C)[nH]c(=O)c1CNC(=O)c1c(C)n([C@H](C)[C@H]2CCN(C3CC3)CC2(F)F)c2ncccc12 (single isomer, unassigned) [70 (isomer 1)]
IC50 (PRC2 containing wt EZH2; [2]): < 0.5 nM
EC50 ([1]; Homo sapiens, HeLa, 72 h): < 10 nM

CSc1cc(C)[nH]c(=O)c1CNC(=O)c1c(C)n([C@H](C)[C@@H]2CCN(C3CC3)CC2(F)F)c2ncccc12 (single isomer, unassigned) [70 (isomer 2)]
IC50 (PRC2 containing wt EZH2; [2]): 0.5 to 5 nM
EC50 ([1]; Homo sapiens, HeLa, 72 h): > 100 nM

CSc1cc(C)[nH]c(=O)c1CNC(=O)c1c(C)n([C@H](C)C2CCC(N3CCOCC3)CC2)c2ccccc12 (single isomer, unassigned) [75 (isomer 1)]
IC50 (PRC2 containing wt EZH2; [2]): < 0.5 nM
EC50 ([1]; Homo sapiens, HeLa, 72 h): 10 to 100 nM

CSc1cc(C)[nH]c(=O)c1CNC(=O)c1c(C)n([C@H](C)C2CCC(N3CCOCC3)CC2)c2ccccc12 (single isomer, unassigned) [75 (isomer 2)]
IC50 (PRC2 containing wt EZH2; [3]): < 0.5 nM
EC50 [1]: 10 to 100 nM

COC1CN(C2CCC([C@@H](C)n3c(C)c(C(=O)NCc4c(SC)cc(C)[nH]c4=O)c4cccnc43)CC2)C1 (single isomer, unassigned) [76 (isomer 1)]
IC50 (PRC2 containing wt EZH2; [2]): < 0.5 nM
EC50 [1]: < 10 nM

COC1CN(C2CCC([C@@H](C)n3c(C)c(C(=O)NCc4c(SC)cc(C)[nH]c4=O)c4cccnc43)CC2)C1 (single isomer, unassigned) [76 (isomer 2)]
IC50 (PRC2 containing wt EZH2; [2]): 0.5 to 5 nM
EC50 [1]: > 100 nM

CSc1cc(C)[nH]c(=O)c1CNC(=O)c1c(C)n([C@H](C)C2OCC(N3CC(C)(C)C3)CO2)c2ccccc12 (single isomer, unassigned) [78 (isomer 1)]
IC50 (PRC2 containing wt EZH2; [2]): < 0.5 nM
EC50 [1]: 10 to 100 nM

CSc1cc(C)[nH]c(=O)c1CNC(=O)c1c(C)n([C@H](C)C2OCC(N3CC(C)(C)C3)CO2)c2ccccc12 (single isomer, unassigned) [78 (isomer 2)]
IC50 (PRC2 containing wt EZH2; [2]): > 5 nM
EC50 [1]: > 100 nM

CSc1cc(C)[nH]c(=O)c1CNC(=O)c1c(C)n([C@H](C)C2CCC(N3CC[C@@H](F)C3)CC2)c2ccccc12 (single isomer, unassigned) [79 (isomer 1)]
IC50 (PRC2 containing wt EZH2; [2]): < 0.5 nM
EC50 ([1]; Homo sapiens, HeLa, 72 h): < 10 nM

CSc1cc(C)[nH]c(=O)c1CNC(=O)c1c(C)n([C@H](C)C2CCC(N3CC[C@@H](F)C3)CC2)c2ccccc12 (single isomer, unassigned) [79 (isomer 2)]
IC50 (PRC2 containing wt EZH2; [3]): < 0.5 nM
EC50 [1]: 10 to 100 nM

CSc1cc(C)[nH]c(=O)c1CNC(=O)c1c(C)n([C@H](C)C2CCC(N3CC(F)C3)CC2)c2ncc(F)cc12 (single isomer, unassigned) [84 (isomer 1)]
IC50 (PRC2 containing wt EZH2; [2]): < 0.5 nM
EC50 ([1]; Homo sapiens, HeLa, 72 h): < 10 nM

CSc1cc(C)[nH]c(=O)c1CNC(=O)c1c(C)n([C@H](C)C2CCC(N3CC(F)C3)CC2)c2ncc(F)cc12 (single isomer, unassigned) [84 (isomer 2)]
IC50 (PRC2 containing wt EZH2; [3]): < 0.5 nM
EC50 [1]: 10 to 100 nM

CSc1cc(C)[nH]c(=O)c1CNC(=O)c1c(C)n([C@H](C)C2OCC(N3CC(F)(F)C3)CO2)c2ccccc12 (single isomer, unassigned) [85 (isomer 1)]
IC50 (PRC2 containing wt EZH2; [2]): < 0.5 nM
EC50 [1]: 10 to 100 nM

CSc1cc(C)[nH]c(=O)c1CNC(=O)c1c(C)n([C@H](C)C2OCC(N3CC(F)(F)C3)CO2)c2ccccc12 (single isomer, unassigned) [85 (isomer 2)]
IC50 (PRC2 containing wt EZH2; [2]): 0.5 to 5 nM
EC50 [1]: > 100 nM

COC1(C)CN(C2CCC([C@@H](C)n3c(C)c(C(=O)NCc4c(SC)cc(C)[nH]c4=O)c4ccccc43)CC2)C1 (single isomer, unassigned) [90 (isomer 1)]
IC50 (PRC2 containing wt EZH2; [4]): < 0.5 nM
EC50 [1]: 10 to 100 nM

COC1(C)CN(C2CCC([C@@H](C)n3c(C)c(C(=O)NCc4c(SC)cc(C)[nH]c4=O)c4ccccc43)CC2)C1 (single isomer, unassigned) [90 (isomer 2)]
IC50 (PRC2 containing wt EZH2; [4]): < 0.5 nM
EC50 [1]: > 100 nM

CCOC1CN(C2CCC([C@@H](C)n3c(C)c(C(=O)NCc4c(SC)cc(C)[nH]c4=O)c4cccnc43)CC2)C1 (single isomer, unassigned) [91 (isomer 1)]
IC50 (PRC2 containing wt EZH2; [4]): < 0.5 nM
EC50 ([1]; Homo sapiens, HeLa, 72 h): < 10 nM

CCOC1CN(C2CCC([C@@H](C)n3c(C)c(C(=O)NCc4c(SC)cc(C)[nH]c4=O)c4cccnc43)CC2)C1 (single isomer, unassigned) [91 (isomer 2)]
IC50 (PRC2 containing wt EZH2; [4]): < 0.5 nM
EC50 [1]: 10 to 100 nM

COC1CN(C2CCC([C@@H](C)n3c(C)c(C(=O)NCc4c(SC)cc(C)[nH]c4=O)c4cc(F)cnc43)CC2)C1 (single isomer, unassigned) [94 (isomer 1)]
IC50 (PRC2 containing wt EZH2; [4]): < 0.5 nM
EC50 [1]: < 10 nM

COC1CN(C2CCC([C@@H](C)n3c(C)c(C(=O)NCc4c(SC)cc(C)[nH]c4=O)c4cc(F)cnc43)CC2)C1 (single isomer, unassigned) [94 (isomer 2)]
IC50 (PRC2 containing wt EZH2; [4]): 0.5 to 5 nM
EC50 [1]: > 100 nM

CSc1cc(C)[nH]c(=O)c1CNC(=O)c1c(C)n([C@H](C)C2CCC(N3CC(OC4CC4)C3)CC2)c2ncncc12 (single isomer, unassigned) [102 (isomer 1)]
IC50 (PRC2 containing wt EZH2; [4]): < 0.5 nM
EC50 ([1]; Homo sapiens, HeLa, 72 h): < 10 nM

CSc1cc(C)[nH]c(=O)c1CNC(=O)c1c(C)n([C@H](C)C2CCC(N3CC(OC4CC4)C3)CC2)c2ncncc12 (single isomer, unassigned) [102 (isomer 2)]
IC50 (PRC2 containing wt EZH2; [4]): < 0.5 nM
EC50 [1]: 10 to 100 nM

CO[C@@H]1CN(C2CCC([C@@H](C)n3c(C)c(C(=O)NCc4c(SC)cc(C)[nH]c4=O)c4cccnc43)CC2)C[C@H]1F (single isomer, unassigned) [104 (isomer 1)]
IC50 (PRC2 containing wt EZH2; [4]): 0.5 to 5 nM
EC50 [1]: 10 to 100 nM

CO[C@@H]1CN(C2CCC([C@@H](C)n3c(C)c(C(=O)NCc4c(SC)cc(C)[nH]c4=O)c4cccnc43)CC2)C[C@H]1F (single isomer, unassigned) [104 (isomer 2)]
IC50 (PRC2 containing wt EZH2; [4]): 0.5 to 5 nM
EC50 [1]: > 100 nM

COC1CN(C2CCC([C@@H](C)n3c(C)c(C(=O)NCc4c(SC)cc(C)[nH]c4=O)c4cc(Cl)cnc43)CC2)C1 (single isomer, unassigned) [106 (isomer 1)]
IC50 (PRC2 containing wt EZH2; [4]): < 0.5 nM
EC50 ([1]; Homo sapiens, HeLa, 72 h): < 10 nM

Source: patent US11459315B2, “Modulators of methyl modifying enzymes, compositions and uses thereof” (Constellation Pharmaceuticals, Inc., priority 2017, dated 2022)
